In patent US4447439A, “2-Cyclic amino-2-(1,2-benzisoxazol-3-yl)acetic acid ester derivatives, process for the preparation thereof and composition containing the same” (priority 1981, dated 1984):
≈ marks a conversion by molar mass, not a printed value. Counter-ions that a name gives are not always drawn. Like-named read-outs stand apart in the source and are kept apart here.

Key:
Mydriatic activity = settings: rat, in vivo, po
Description: (§3) This activity was examined according to the method of P. Pelewka [cf.

[1] = system: spontaneous gastric motility; test: Inhibitory effect on spontaneous gastric motility (Anti-SGM); set-up: species or system male Wistar strain rats; settings: Rattus norvegicus; conscious rats, fasted 18 hours, oral; read-out: ID50 Anti-SGM (antispasmodic activity in vivo)
Protocol: (2) Inhibitory effect on spontaneous gastric motility (Anti-SGM)
(§1) This effect was examined using male Wistar strain rats, weighing about 250 g, with chronically implanted strain gauge force transducer as mentioned in the experiment (1). The rats were usually allowed to stand for 3-5 days for recovery from the surgery and fasted for 18 hours before experiment. Then, spontaneous gastric motility in conscious rats were recorded and the sum of amplitude of each contraction was calculated every 15 minutes. Inhibitory effect of test compound by oral administration was expressed as a percent inhibition of initial spontaneous motility.

[2] = system: section of the ileum (contractile response induced by transmural stimulation); test: Inhibitory effect on contractile response induced by transmural stimulation (Anti-TMS); type: cell-based, male Hartley strain guinea pig; settings: guinea pig ileum, transmural stimulation 5 Hz, 20-30 V, compound applied 20 minutes before; for IC50: Cavia porcellus, read-out: IC50 Anti-TMS (antispasmodic activity in vitro)
Protocol: (1) Inhibitory effect on contractile response induced by transmural stimulation (Anti-TMS)
From male Hartley strain guinea pig, weighing 300-350 g, section of the ileum about 3 cm in length was prepared and mounted in Tyrode's solution kept at 35° C. and oxygenated with 95% O2 --5% CO2, and responses of the ileum were recorded isotonically with an initial tension of 1 g. The ileum was stimulated electrically by the method of W. D. M. Paton [cf. […] The electrode was made of platinum and the intraluminal electrode was used at a frequency of 5 Hz and at a voltage sufficient to give a maximal response (20-30 V). Test compounds were applied 20 minutes before the stimulation.
(§2) In the experiments (1) and (2), each compound was tested in three different concentrations.

[3] = system: section of the ileum (contractile response induced by acetylcholine); test: Inhibitor effect on contractile response induced by acetylcholine (Anti-ACh); type: cell-based, male Hartley strain guinea pig; settings: guinea pig ileum, acetylcholine 2×10^-8 g/ml, compound applied 2 minutes before; for IC50: Cavia porcellus, read-out: IC50 Anti-ACh (antispasmodic activity in vitro)
Protocol: (2) Inhibitor effect on contractile response induced by acetylcholine (Anti-ACh)
In the same manner as described in the above experiment (1), ileum preparation was prepared and mounted in Tyrode's solution. The response of the ileum to acetylcholine (2×10^-8 g/ml) were recorded isotonically. Test compounds were applied 2 minutes before adding the acetylcholine.
as §2

[4] = system: stomach (contractile response induced by carbachol); test: Inhibitor effect on contractile response induced by carbachol (Anti-Car); set-up: species or system male Wistar strain rats; settings: Rattus norvegicus, iv; anesthetized rats, carbachol 10 μg/kg, i.v.; read-out: ID50 Anti-Car (antispasmodic activity in vivo)
Protocol: (1) Inhibitor effect on contractile response induced by carbachol (Anti-Car)
This effect was examined using the strain gauge force transducer as described by X. B. Pascaud et al. [cf. Am. […] The transducer was sutured on the serosa of the stomach in anesthetized male Wistar strain rats, weighing about 250 g. This transducer can record simultaneously contractions and tone variation of the muscle. The contractile response induced by carbachol (10 μg/kg, i.v.) was estimated before and after administration of test compound. Inhibitory effect of test compound was expressed as a percent inhibition of the response.

[5] = Safety index (ED50 of mydriatic activity / ID50 of Anti-SGM); set-up: species or system male Wistar strain rats; settings: rat, in vivo, po
Protocol: as §1, with “motility. ID50 value, i.e., the dose required for 50% inhibition of spontaneous motility, was determined from regression line calculated by the maximum percent inhibition at each dose level.” for “motility.”

Acute lethal toxicity = test: Acute lethal toxicity; set-up: species or system male and female Jcl:SD strain rats; settings: rat, in vivo, po, single oral, 7 days
in vivo = settings: rat, po
Description: as §3

| IC50 [2] [µg/mL] | IC50 [3] [µg/mL] | SMILES | also measured |
| --- | --- | --- | --- |
| 0.11 (≈ 0.285 µM) | 0.042 (≈ 0.109 µM) | CCN1CCCC(OC(=O)C(c2noc3ccccc23)N2CCCCCC2)C1 (stereo not shown) [Example 3] | – |
| 0.11 (≈ 0.296 µM) | 0.039 (≈ 0.105 µM) | CN1CCCC(OC(=O)C(c2noc3ccccc23)N2CCCCCC2)C1 (stereo not shown) [Example 8] | – |
| 0.034 (≈ 0.0915 µM) | 0.023 (≈ 0.0619 µM) | CN1CCC(OC(=O)C(c2noc3ccccc23)N2CCCCCC2)CC1 (stereo not shown) [Example 16, 1-methyl-4-piperidyl 2-hexamethyleneimino-2-(1,2-benzisoxazol-3-yl)acetate] | – |
| 0.096 | 0.022 | CC[N+]1(C)CCCC(OC(=O)C(c2noc3ccccc23)N2CCCCCC2)C1 (stereo not shown) [Example 22] | – |
| 0.074 | 0.036 | CC1CCCN(C(C(=O)OC2CC[N+](C)(C)CC2)c2noc3ccccc23)C1 (stereo not shown) [Example 23] | – |
| 0.1 | 0.036 | C[N+]1(C)CCCC(OC(=O)C(c2noc3ccccc23)N2CCCCCC2)C1 (stereo not shown) [Example 24] | – |
| 0.088 | 0.014 | C[N+]1(C)CCC(OC(=O)C(c2noc3ccccc23)N2CCCCCCC2)CC1 (stereo not shown) [Example 27] | – |
| – | – | C[N+]1(C)CCC(OC(=O)C(c2noc3ccccc23)N2CCCCCC2)CC1 (stereo not shown) [Example 28] | IC50 Anti-TMS (antispasmodic activity in vitro) [2]: 0.1 µg/mL; IC50 Anti-ACh (antispasmodic activity in vitro) [3]: 0.013 µg/mL |
| – | – | CC[N+]1(C)CCC(OC(=O)C(c2noc3ccccc23)N2CCCCCC2)CC1 (stereo not shown) [Example 31] | IC50 Anti-TMS (antispasmodic activity in vitro) [2]: 0.12 µg/mL; IC50 Anti-ACh (antispasmodic activity in vitro) [3]: 0.055 µg/mL |
| 0.18 | 0.032 | CC[N+]1(C)CCC(OC(=O)C(c2noc3ccccc23)N2CCCC2)CC1 (stereo not shown) [Example 33] | – |
| – | 0.033 | CC[N+]1(C)CCC(OC(=O)C(c2noc3ccccc23)N2CCCCC2)CC1 (stereo not shown) [Example 34] | IC50 ([2]; 20 min): 0.044 µg/mL |
| 0.11 | 0.029 | C[N+]1(C)CCC(OC(=O)C(c2noc3ccccc23)N2CCCCC2)CC1 (stereo not shown) [Example 36] | – |
| 0.24 | 0.072 | CC1CCN(C(C(=O)OC2CC[N+](C)(C)CC2)c2noc3ccccc23)CC1 (stereo not shown) [Example 37] | – |
| – | 0.024 | C[N+]1(C)CCC(OC(=O)C(c2noc3ccccc23)N2CCCCCC2)CC1 (stereo not shown) [Example 38] | IC50 Anti-TMS (antispasmodic activity in vitro) [2]: 0.027 µg/mL |
| 0.058 | 0.051 | C[N+]1(C)CCC(OC(=O)C(c2noc3ccccc23)N2CCCC2)CC1 (stereo not shown) [Example 39] | – |
| 0.34 | 0.078 | C[N+]1(C)CCC(OC(=O)C(c2noc3ccc(Cl)cc23)N2CCCCCC2)CC1 (stereo not shown) [Example 42] | – |
| 0.29 | 0.08 | C[N+]1(C)CCC(OC(=O)C(c2noc3ccc(F)cc23)N2CCCCCC2)CC1 (stereo not shown) [Example 44] | – |

| SMILES | IC50 [2] [µg/mL] | IC50 [3] [µg/mL] | also measured |
| --- | --- | --- | --- |
| CN1[C@@H]2CC[C@H]1C[C@@H](OC(=O)C(CO)c1ccccc1)C2 (stereo partly shown) [Atropine sulfate, atropine sulfate, reference compound] | 0.035 | 0.005 | ED50 (Mydriatic activity): 3.5 mg/kg; ED50 [1]: 1.7 mg/kg; ED50 [4]: 0.0084 mg/kg |
| CC[N+]1(C)CCC(OC(=O)C(c2noc3ccccc23)N2CCCCCC2)CC1.[I-] (stereo not shown) [Example 17(i), 1-ethyl-1-methyl-4-[2-hexamethyleneimino-2-(1,2-benzisoxazol-3-yl)acetoxy]piperidinium iodide] | 0.14 | – | ED50 (Mydriatic activity): > 3000 mg/kg; selectivity ratio ([5]; ED50 of mydriatic activity divided by ID50 of Anti-SGM, read-out: Safety index): > 114; ED50 [1]: 26.3 mg/kg; LD50 at 168 h (Acute lethal toxicity; female rats): 6320 mg/kg; LD50 at 168 h (Acute lethal toxicity; male rats): 5430 mg/kg; ED50 [4]: 0.0187 mg/kg |
| C[N+]1(C)CCC(OC(=O)C(c2noc3ccccc23)N2CCCCCC2)CC1.[I-] (stereo not shown) [Example 20, 1,1-dimethyl-4-[2-hexamethyleneimino-2-(1,2-benzisoxazol-3-yl)acetoxy]piperidinium iodide] | 0.12 | 0.02 | – |
| C[N+]1(C)CCC(OC(=O)C(c2noc3ccccc23)N2CCCCC2)CC1.[I-] (stereo not shown) [Example 21, 1,1-Dimethyl-4-[2-piperidino-2-(1,2-benzisoxazol-3-yl)acetoxy]piperidinium iodide] | 0.09 | 0.032 | – |
| CC[N+]1(C)CCC(OC(=O)C(c2noc3ccccc23)N2CCCCCC2)CC1 (stereo not shown) [Example 30] | 0.18 | 0.064 | – |
| CCCC[N+]1(C)C2CC(OC(=O)C(CO)c3ccccc3)CC1C1OC12 (stereo not shown) [Scopolamine-N-butyl bromide, scopolamine-N-butyl bromide, reference compound] | 0.44 | 0.089 | selectivity ratio [5]: 2; ED50 [1]: 100 mg/kg; ED50 (in vivo): 227 mg/kg; ED50 [4]: 0.0201 mg/kg |
